# Data published in patent US11517577B2, “Fluorinated bile acid derivatives” (NZP UK LIMITED, priority 2018, dated 2022).
# Like-named read-outs stand apart in the source and are kept apart here.
# Assays:
# [1] = system: SHP expression in Huh7 cells; assay: qPCR of SHP (NR0B2) expression in Huh7 cells; assay type: cell-based, human; conditions: Huh7, 24 hours
# Method: (§1) To assess specific changes in gene expression in response to the test compounds, precise quantification and analysis by quantitative real-time PCR (qPCR) was carried out. Mammalian tissue culture experiments involved seeding Hepatocellular carcinoma, (Huh7) cells, in 6 well plates at a concentration of 1×10^6 cells/well and incubating for 24 hours at 37° C. to allow attachment.
# (§2) Testing in Huh7 cells and HepG2 cells was also carried out for Compound 14 in the same way as for Compound 2.
# (§3) Total RNA was extracted using the RNAQUEOUS™ Total RNA Isolation kit (Ambion) and all reagents were provided in the kit or prepared according to manufacturer's instructions. For cultured cells, the medium was removed and cells were washed with 1×PBS to remove cellular debris and residual medium. Total RNA was extracted from fresh cells. For 1×10^6 cells, 350 μl lysis buffer was added directly to the well and cells were harvested by scraping with a pipette tip. Lysed cells were combined with an equal volume of 64% ethanol and mixed thoroughly by pipetting. The ethanol-lysate mix was transferred to a column and spun at 12,000×G for 1 minute and flow through discarded. […]
# (§4) The ready-to-use reaction mastermix, ITAQ™ Universal SYBR® Green Supermix (Biorad) was used for all qPCR reactions. […] Melting curve analysis was performed straight after each run by increasing the temperature from 60° C. to 95° C. in 0.3° C. increments, and measuring fluorescence dissociation.
# To quantify gene expression, the baseline-corrected Ct value was determined automatically by the qPCR system software (Applied Biosystems). Relative changes in gene expression were determined by the Livak, or ΔΔCt, method whereby the Ct values of target genes were normalised to Ct value of the reference gene, for both the samples treated with vehicle/untreated samples (control) and the samples treated with compound (test samples). […] And finally, the expression ratio was calculated using the equation 2^−ΔΔC^t. […]
# [2] = biological target: T1, Human Farnesoid X Receptor (NR1H4, FXR) (Homo sapiens, UniProt Q96RI1); assay: FXR reporter assay, EC50 and efficacy (Indigo Biosciences luciferase reporter cells); assay type: cell-based; conditions: for Efficacy: maximum point on the dose response curve, GW4064 designated as 100%
# T1 sequence (Q96RI1 1-486): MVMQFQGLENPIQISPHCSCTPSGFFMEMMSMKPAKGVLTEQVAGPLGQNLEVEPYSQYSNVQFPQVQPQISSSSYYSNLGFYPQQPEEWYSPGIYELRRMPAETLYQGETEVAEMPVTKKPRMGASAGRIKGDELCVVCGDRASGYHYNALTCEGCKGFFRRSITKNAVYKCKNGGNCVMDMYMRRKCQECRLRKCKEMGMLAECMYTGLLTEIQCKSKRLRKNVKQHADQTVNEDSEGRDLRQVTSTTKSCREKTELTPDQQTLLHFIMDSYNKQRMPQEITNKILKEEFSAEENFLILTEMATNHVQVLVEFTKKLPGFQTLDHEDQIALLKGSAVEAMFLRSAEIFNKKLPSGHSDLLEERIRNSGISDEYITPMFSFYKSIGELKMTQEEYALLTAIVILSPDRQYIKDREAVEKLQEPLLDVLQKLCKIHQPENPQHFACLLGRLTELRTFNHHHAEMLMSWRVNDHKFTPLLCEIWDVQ
# Method: The compounds of the invention were assayed for agonist activity at the FXR receptor.
# Dose-response assays were performed as described in the technical manual of the Human Farnesoid X Receptor (NR1H4, FXR) Reporter Assay System (Indigo Biosciences Human Farnesoid X Receptor (NR1H4, FXR) Reporter Assay System, Technical Manual (version 7.1b), at the World Wide Web (www)indiqobiosciences.com).
# FXR reporter cells consisting of an FXR-responsive promoter gene functionally linked to the luciferase gene were defrosted and seeded into a 96-well plate and these cells were immediately dosed with the test compounds at different concentrations (10-0.05 μM) according to the manufacturer's protocol. […] Following this, the induction of luciferase activity, which is the measure of the agonist activity, was quantified by using luminometer (TECAN) according to the manufacturer's protocol.
# [3] = system: TGFβ1 expression in HepG2 cells; assay: qPCR of TGFβ1 expression in HepG2 cells; assay type: cell-based, human; conditions: HepG2, 24 hours
# Method: (§5) Compound 2 and OCA were also tested in the human hepatocellular carcinoma cell line, HepG2.
# as §2
# as §3, with “tip.” for “tip. Lysed cells were combined with an equal volume of 64% ethanol and mixed thoroughly by pipetting. The ethanol-lysate mix was transferred to a column and spun at 12,000×G for 1 minute and flow through discarded.”
# as §4
# (§6) To quantify gene expression, the baseline-corrected Ct value was determined automatically by the qPCR system software (Applied Biosystems). Relative changes in gene expression were determined by the Livak, or ΔΔCt, method whereby the Ct values of target genes were normalised to Ct value of the reference gene, for both the samples treated with vehicle/untreated samples (control) and the samples treated with compound (test samples). […]
# [4] = system: CYP7A1 expression in HepG2 cells; assay: qPCR of CYP7A1 expression in HepG2 cells; assay type: cell-based, human; conditions: HepG2, 24 hours
# Method: as §5, §2
# as §3, with “tip.” for “tip. Lysed cells were combined with an equal volume of 64% ethanol and mixed thoroughly by pipetting. The ethanol-lysate mix was transferred to a column and spun at 12,000×G for 1 minute and flow through discarded.”
# as §4, §6
# TGR5 (GPBAR1) receptor = biological target: T2, TGR5 (GPBAR1) receptor (Homo sapiens, UniProt Q8TDU6); assay: HITHUNTER cAMP assay, agonist mode, TGR5 receptor; conditions: for Emax: read-out: Max Response; for agonist activity at the TGR5 receptor: statement in words on Table 2
# T2 sequence (Q8TDU6 1-330): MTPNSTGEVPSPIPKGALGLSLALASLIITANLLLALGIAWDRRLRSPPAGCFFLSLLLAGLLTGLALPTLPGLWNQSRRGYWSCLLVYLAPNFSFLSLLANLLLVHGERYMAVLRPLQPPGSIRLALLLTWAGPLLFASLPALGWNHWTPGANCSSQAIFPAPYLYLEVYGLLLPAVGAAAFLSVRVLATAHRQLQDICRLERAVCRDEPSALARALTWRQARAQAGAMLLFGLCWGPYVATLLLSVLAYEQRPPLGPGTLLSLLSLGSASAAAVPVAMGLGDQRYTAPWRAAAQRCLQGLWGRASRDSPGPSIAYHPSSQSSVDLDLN
# Method: 1. cAMP Hunter cell lines were expanded from freezer stocks according to standard procedures.
# Cells were seeded in a total volume of 20 μL into white walled, 384-well microplates and incubated at 37° C. for the appropriate time prior to testing.
# For agonist determination, cells were incubated with sample to induce response.
# Media was aspirated from cells and replaced with 15 μL 2:1 HBSS/10 mM Hepes:cAMP XS+ Ab reagent.
# Intermediate dilution of sample stocks was performed to generate 4× sample in assay buffer.
# 5 μL of 4× sample was added to cells and incubated at 37° C. or room temperature for 30 or 60 minutes. Vehicle concentration was 1%.
# After appropriate compound incubation, assay signal was generated through incubation with 20 μL cAMP XS+ ED/CL lysis cocktail for one hour followed by incubation with 20 μL cAMP XS+ EA reagent for three hours at room temperature.
# Microplates were read following signal generation with a PerkinElmer ENVISION™ instrument for chemiluminescent signal detection.
# Compound activity was analyzed using CBIS data analysis suite (ChemInnovation, CA).
# For Gs agonist mode assays, percentage activity is calculated using the following formula, where RLU is an abbreviation for relative light units:
# [5] = system: OSTα expression in Huh7 cells; assay: qPCR of OSTα expression in Huh7 cells; assay type: cell-based, human; conditions: Huh7, 24 hours
# Method: as §1, §2
# Total RNA was extracted using the RNAQUEOUS™ Total RNA Isolation kit (Ambion) and all reagents were provided in the kit or prepared according to manufacturer's instructions. […]
# as §4, §6
# [6] = Xiao et al., 2017; cited from earlier work
SMILES,SHP expression levels increased ([1]; compound at EC50 concentration) [times],"SHP expression levels increased ([1]; higher value, printed again as 'EC50 concentration') [times]",EC50 [2] [nM],Efficacy [2] [%],TGFβ1 expression levels ([3]; compound at its EC50 concentration),CYP7A1 expression ([4]; with increasing concentrations of compound),EC50 (TGR5 (GPBAR1) receptor) [nM],Emax (TGR5 (GPBAR1) receptor) [%],agonist activity at the TGR5 receptor (TGR5 (GPBAR1) receptor),Ostα mRNA increase in expression ([5]; compound at EC50 concentration) [fold],Ostα mRNA increase in expression ([5]; compound at EC90 concentration) [fold],"EC50 ([2]; FXR reporter cells, 24 h incubation, normalized against EC50 of GW4064, assigned as […] nM) [nM]",liver:plasma concentration ratio [6],SHP expression levels ([1]; compound at its EC90 concentration),TGFβ1 expression ([3]; with increasing compound concentrations),"CYP7A1 expression ([4]; compound at the EC50 concentration, versus vehicle control cells)"
"CC[C@@H]1[C@@H]2[C@@H](F)[C@H](O)CC[C@]2(C)C2CC[C@@]3(C)C(CCC3[C@H](C)CCNC(=O)NS(=O)(=O)c3ccccc3)C2[C@@H]1O (stereo partly drawn) [Compound 2, N,N′-(3α,7α-Dihydroxyl-4β-fluoro-6α-ethyl-24-nor-5β-cholan-23-yl)-benzene sulfonyl urea]",1.5,2.5,24,195,significant downregulation,downregulated,> 100000,0,neither Compound 2 nor Compound 14 has agonist activity at the TGR5 receptor,11,18,–,–,–,–,–
"CC[C@H]1[C@@H](O)[C@@H]2[C@H](CC[C@]3(C)[C@@H]([C@H](C)CCC(=O)NS(=O)(=O)c4ccc(C(F)(F)F)cc4)CC[C@@H]23)[C@@]2(C)CC[C@@H](O)[C@H](F)[C@@H]12 [Compound 18, N-(3α,7α-Dihydroxyl-4β-fluoro-6α-ethyl-5β-cholan-24-oyl)-4-trifluoromethylphenyl sulfonamide]",–,–,–,148,–,–,–,–,–,–,–,15,highest,–,–,–
"CC[C@H]1[C@@H](O)[C@@H]2[C@H](CC[C@]3(C)[C@@H]([C@H](C)CCC(=O)NS(=O)(=O)c4ccc(OC(F)(F)F)cc4)CC[C@@H]23)[C@@]2(C)CC[C@@H](O)[C@H](F)[C@@H]12 [Compound 14, N-(3α,7α-Dihydroxyl-4β-fluoro-6α-ethyl-5β-cholan-24-oyl)-p-trifluoromethoxy benzene sulfonamide]",–,–,–,–,–,–,> 100000,0,neither Compound 2 nor Compound 14 has agonist activity at the TGR5 receptor,–,–,–,–,more than doubled,decline,significantly decreased
